In patent US8981111B2 (priority 2008, dated 2015):

Assay: log P (HPLC/MS data of the preparation examples)
Details: LC-MS, method [b]: pH 2.7 with 0.1% formic acid in water and acetonitrile, linear gradient 10% to 95% acetonitrile

Compound	log p
Cn1ccnc1C(=NOCc1nccc(NC(=O)COCc2ccccc2)n1)c1ccccc1 [Example 54]	2.04^[b]
CCCCCOC(=O)Nc1ccnc(CON=C(c2ccccc2)c2nccn2C)n1 [Example 55]	2.28^[b]
COCCOCC(=O)Nc1ccnc(CON=C(c2ccccc2)c2nccn2C)n1 [Example 56]	1.34^[b]
C=CCOC(=O)Nc1ccnc(CON=C(c2ccccc2)c2nccn2C)n1 [Example 57]	1.62^[b]
CCCC(=O)Nc1ccnc(CON=C(c2ccccc2)c2nccn2C)n1 [Example 58]	1.68^[b]
CCCCC(=O)Nc1ccnc(CON=C(c2ccccc2)c2nccn2C)n1 [Example 59]	1.95^[b]
Cn1nncc1C(=NOCc1cccc(N)n1)c1ccccc1 [Example 60]	1.11^[b]
CC(=O)Nc1ccnc(CON=C(c2ccccc2)c2nccn2C)n1 [Example 62]	1.13^[b]
CCC(=O)Nc1ccnc(CON=C(c2ccccc2)c2nccn2C)n1 [Example 63]	1.38^[b]
Cn1ccnc1C(=NOCc1nccc(NC(=O)CCc2ccccc2)n1)c1ccccc1 [Example 64]	2.21^[b]
CCCCCC(=O)Nc1cccc(CON=C(c2ccccc2)c2cnnn2C)n1 [Example 65]	3.52^[b]
Cn1nncc1C(=NOCc1cccc(NC(=O)C(C)(C)C)n1)c1ccccc1 [Example 66]	3.11^[b]
Cn1nncc1C(=NOCc1cccc(NC(=O)C2CC2)n1)c1ccccc1 [Example 67]	2.55^[b]
Cn1nncc1C(=NOCc1cccc(NC(=O)Cc2ccccc2)n1)c1ccccc1 [Example 68]	3.19^[b]
CCCCCOC(=O)Nc1cccc(CON=C(c2ccccc2)c2cnnn2C)n1 [Example 69]	2.46^[b]
Cn1nncc1C(=NOCc1nccc(N)n1)c1ccccc1 [Example 70]	0.96^[b]
CCCCCC(=O)Nc1ccnc(CON=C(c2ccccc2)c2cnnn2C)n1 [Example 71]	3.23^[b]
CCCCS(=O)(=O)Nc1cccc(CON=C(c2ccccc2)c2ncnn2C)n1 [Example 72]	4.21^[b]
CCCCS(=O)(=O)N(c1cccc(CON=C(c2ccccc2)c2ncnn2C)n1)S(=O)(=O)CCCC [Example 73]	2.73^[b]
CCCCS(=O)(=O)Nc1cccc(CON=C(c2ccc(C)cc2)c2ncnn2C)n1 [Example 74]	3.04^[b]

Compound	log p
CCCCS(=O)(=O)Nc1cccc(CON=C(c2cccc(C)c2)c2ncnn2C)n1 [Example 75]	3.04^[b]
CCCCS(=O)(=O)Nc1cccc(CON=C(c2ccccc2)c2cnnn2C)n1 [Example 76]	2.86^[b]
Cn1nncc1C(=NOCc1nccc(NC(=O)C(C)(C)C)n1)c1ccccc1 [Example 77]	2.77^[b]
CCCCS(=O)(=O)N(c1cccc(CON=C(c2ccc(C)cc2)c2ncnn2C)n1)S(=O)(=O)CCCC [Example 78]	4.51^[b]
CCCCS(=O)(=O)N(c1cccc(CON=C(c2cccc(C)c2)c2ncnn2C)n1)S(=O)(=O)CCCC [Example 79]	4.49^[b]
CCCCS(=O)(=O)N(c1cccc(CON=C(c2ccccc2)c2cnnn2C)n1)S(=O)(=O)CCCC [Example 80]	4.26^[b]
Cn1nncc1C(=NOCc1nccc(NC(=O)Cc2ccccc2)n1)c1ccccc1 [Example 81]	2.84^[b]
CC(C)CC(=O)Nc1ccnc(CON=C(c2ccccc2)c2cnnn2C)n1 [Example 82]	2.77^[b]
Cn1nncc1C(=NOCc1csc(NC(=O)C(C)(C)C)n1)c1ccccc1 [Example 83]	3.06^[b]
CCCCCOC(=O)Nc1nc(CON=C(c2ccccc2)c2cnnn2C)cs1 [Example 84]	3.76^[b]
CCCCCC(=O)Nc1nc(CON=C(c2ccccc2)c2cnnn2C)cs1 [Example 85]	3.44^[b]
CC(C)CC(=O)Nc1nc(CON=C(c2ccccc2)c2cnnn2C)cs1 [Example 86]	3^[b]
CCCCCOC(=O)Nc1ccnc(CON=C(c2ccccc2)c2cnnn2C)n1 [Example 87]	3.55^[b]
CCCCCCOC(=O)Nc1cccc(CON=C(c2ccccc2)c2ncnn2C)n1 [Example 88]	4.36^[b]
CCCOC(=O)Nc1cccc(CON=C(c2ccccc2)c2ncnn2C)n1 [Example 89]	3.15^[b]
Cn1cncc1C(=NOCc1cccc(N2C(=O)c3ccccc3C2=O)n1)c1ccccc1 [Example 90]	1.81^[b]
CCCCOC(=O)Nc1cccc(CON=C(c2ccccc2)c2ncnn2C)n1 [Example 91]	3.53^[b]
Cn1ncnc1C(=NOCc1cccc(NC(=O)OCCCCCl)n1)c1ccccc1 [Example 92]	3.39^[b]
CCOC(=O)Nc1cccc(CON=C(c2ccccc2)c2ncnn2C)n1 [Example 93]	2.71^[b]
C#CCCOC(=O)Nc1cccc(CON=C(c2ccccc2)c2ncnn2C)n1 [Example 94]	2.82^[b]

Compound	log p
Cn1cncc1C(=NOCc1nccc(N)n1)c1ccccc1 [Example 95]	0.01^[b]
CC(C)CC(=O)Nc1nc(CON=C(c2ccccc2)c2ncnn2C)cs1 [Example 96]	2.88^[b]
Cn1cncc1C(=NOCc1nccc(NC(=O)C(C)(C)C)n1)c1ccccc1 [Example 99]	1.76^[b]
Cn1ncnc1C(=NOCc1csc(NC(=O)C(C)(C)C)n1)c1ccccc1 [Example 101]	2.92^[b]
Cn1c(C(=NOCc2nccc(NC(=O)C(C)(C)C)n2)c2ccccc2)cnc1C(=O)C(C)(C)C [Example 102]	4.84^[b]
CC(C)C=C(OC(=O)CC(C)C)c1ncc(C(=NOCc2nccc(NC(=O)CC(C)C)n2)c2ccccc2)n1C [Example 103]	4.04^[b]
Cn1cncc1C(=NOCc1nccc(N(C(=O)C2CC2)C(=O)C2CC2)n1)c1ccccc1 [Example 104]	1.75^[b]
CCCCCCCOC(=O)Nc1cccc(CON=C(c2ccccc2)c2ncnn2C)n1 [Example 106]	4.86^[b]
Cn1ncnc1C(=NOCc1cccc(NC(=O)CCc2ccccc2)n1)c1ccccc1 [Example 107]	3.33^[b]
CC(C)C(=O)Nc1ccnc(CON=C(c2ccccc2)c2cnc(C(=O)C(C)C)n2C)n1 [Example 109]	3.62^[b]
CC(C)=C(OC(=O)C(C)C)c1ncc(C(=NOCc2nccc(NC(=O)C(C)C)n2)c2ccccc2)n1C [Example 110]	2.77^[b]
Cn1cncc1C(=NOCc1csc(N)n1)c1ccccc1 [Example 111]	0.69^[b]
CC(C)CC(=O)Nc1ccnc(CON=C(c2ccccc2)c2cncn2C)n1 [Example 112]	1.99^[b]
CCCCCOC(=O)N(C)c1cccc(CON=C(c2ccccc2)c2ncnn2C)n1 [Example 113]	4.39^[b]
CCCCCOC(=O)Nc1ccnc(CON=C(c2ccccc2)c2cncn2C)n1 [Example 115]	2.66^[b]
CCCCCC(=O)Nc1nc(CON=C(c2ccccc2)c2cncn2C)cs1 [Example 116]	2.08^[b]
Cn1cncc1C(=NOCc1csc(NC(=O)C(C)(C)C)n1)c1ccccc1 [Example 117]	1.84^[b]
CC(C)CC(=O)Nc1nc(CON=C(c2ccccc2)c2cncn2C)cs1 [Example 118]	1.84^[b]
CC(C)C(=O)Nc1nc(CON=C(c2ccccc2)c2cncn2C)cs1 [Example 119]	1.63^[b]
CCCCCC(=O)Nc1cccc(CON=C(c2ccccc2)c2cncn2C)n1 [Example 120]	2.11^[b]
